Results from US11071731B2, “Allosteric modulators of the mu opioid receptor” (Chiromics, LLC, priority 2017, dated 2021).

Tests used:
mu opioid receptor (MOR) [1] = biological target: T1, mu opioid receptor (MOR) (Homo sapiens, UniProt P35372); assay: Hit Hunter cAMP signaling assay (adenylyl cyclase inhibition), PAM mode with EC20 endomorphin-1; assay type: cell-based; details: for EC50: adenylyl cyclase inhibition, read-out: cAMP EC50; for cAMP Max. Resp.: maximal response for adenylyl cyclase inhibition
T1 sequence (P35372 whole entry): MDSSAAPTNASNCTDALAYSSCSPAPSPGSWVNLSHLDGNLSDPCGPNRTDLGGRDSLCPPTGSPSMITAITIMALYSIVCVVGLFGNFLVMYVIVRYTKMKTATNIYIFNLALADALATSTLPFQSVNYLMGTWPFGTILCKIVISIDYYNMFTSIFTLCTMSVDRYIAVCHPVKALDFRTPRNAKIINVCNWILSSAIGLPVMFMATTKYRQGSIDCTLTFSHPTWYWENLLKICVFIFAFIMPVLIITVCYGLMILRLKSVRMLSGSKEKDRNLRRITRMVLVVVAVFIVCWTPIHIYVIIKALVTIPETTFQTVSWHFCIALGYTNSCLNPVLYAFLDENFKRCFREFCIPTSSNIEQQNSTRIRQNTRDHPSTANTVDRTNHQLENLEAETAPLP

mu opioid receptor (MOR) [2] = biological target: T1, mu opioid receptor (MOR); assay: PathHunter β-arrestin recruitment assay, PAM mode with EC20 endomorphin-1; assay type: cell-based; details: for EC50: β-arrestin recruitment, read-out: β-arr. EC50; for β-arr Max. Resp.: maximal response for β-arrestin recruitment
How it was run: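 β-Arrestin recruitment to the receptor was tracked by chemiluminescent β-galactosidase activity from complementing fragments (ED on receptor, EA on β-arrestin). Per-compound outputs were EC50 and percent maximal response.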

Compound	EC50 (mu opioid receptor (MOR) [1])	EC50 (mu opioid receptor (MOR) [2])	cAMP Max. Resp. (mu opioid receptor (MOR) [1])	β-arr Max. Resp. (mu opioid receptor (MOR) [2])
O=S(=O)(c1ccc(Cl)cc1)N1CCCC(F)C1c1ccc(F)c(Br)c1 (stereo not drawn) [Compound 29]	> 2.1 µM	> 2.1 µM	–	–
[2H]C1(c2ccc(F)c(Br)c2)C(F)CCCN1S(=O)(=O)c1ccc(Cl)cc1 (stereo not drawn) [Compound 29]	–	–	E (E represents a maximal response of 40-60%)	F (F represents a maximal response of > 60%)
O=S(=O)(c1cccc(Cl)c1)N1CCCC(F)C1c1ccc(F)c(Br)c1 (stereo not drawn) [Compound 32]	> 2.1 µM	> 2.1 µM	–	–
[2H]C1(c2ccc(F)c(Br)c2)C(F)CCCN1S(=O)(=O)c1cccc(Cl)c1 (stereo not drawn) [Compound 32]	–	–	D (D represents a maximal response of < 40%)	F (F represents a maximal response of > 60%)
O=S(=O)(Cc1ccc(Cl)cc1)N1CCCC(F)C1c1ccc(F)c(Br)c1 (stereo not drawn) [Compound 33]	> 2.1 µM	> 2.1 µM	–	–
[2H]C1(c2ccc(F)c(Br)c2)C(F)CCCN1S(=O)(=O)Cc1ccc(Cl)cc1 (stereo not drawn) [Compound 33]	–	–	D (D represents a maximal response of < 40%)	F (F represents a maximal response of > 60%)
O=S(=O)(c1ccc(Cl)cc1F)N1CCCC(F)C1c1ccc(F)c(Br)c1 (stereo not drawn) [Compound 37]	> 2.1 µM	> 2.1 µM	–	–
[2H]C1(c2ccc(F)c(Br)c2)C(F)CCCN1S(=O)(=O)c1ccc(Cl)cc1F (stereo not drawn) [Compound 37]	–	–	D (D represents a maximal response of < 40%)	F (F represents a maximal response of > 60%)
O=S(=O)(c1cc(F)ccc1F)N1CCCC(F)C1c1ccc(F)c(Br)c1 (stereo not drawn) [Compound 38]	> 2.1 µM	> 2.1 µM	–	–
[2H]C1(c2ccc(F)c(Br)c2)C(F)CCCN1S(=O)(=O)c1cc(F)ccc1F (stereo not drawn) [Compound 38]	–	–	D (D represents a maximal response of < 40%)	F (F represents a maximal response of > 60%)
CC1CCN(S(=O)(=O)c2ccc(Cl)cc2)C1c1ccc(F)c(Br)c1 (stereo not drawn) [Compound 106]	< 0.7 µM	0.7 to 2.1 µM	D (D represents a maximal response of < 40%)	F (F represents a maximal response of > 60%)
CC1CCN(S(=O)(=O)c2ccc(Cl)cc2)C1c1cccc(Cl)c1 (stereo not drawn) [Compound 107]	> 2.1 µM	> 2.1 µM	D (D represents a maximal response of < 40%)	F (F represents a maximal response of > 60%)
O=S(=O)(c1ccc(Cl)cc1)N1C2CCC(C2)C1c1ccc(F)c(Br)c1 (stereo not drawn) [Compound 178]	0.7 to 2.1 µM	< 0.7 µM	D (D represents a maximal response of < 40%)	F (F represents a maximal response of > 60%)
O=S(=O)(c1ccc(Cl)cc1)N1C2CCC(C2)C1c1ccc(F)c(Br)c1 (stereo not drawn) [Compound 179]	< 0.7 µM	0.7 to 2.1 µM	D (D represents a maximal response of < 40%)	F (F represents a maximal response of > 60%)
O=S(=O)(c1cccc(Cl)c1)N1C2CCC(C2)C1c1ccc(F)c(Br)c1 (stereo not drawn) [Compound 180]	> 2.1 µM	> 2.1 µM	E (E represents a maximal response of 40-60%)	F (F represents a maximal response of > 60%)
O=S(=O)(Cc1ccc(Cl)c(Cl)c1)N1C2CCC(C2)C1c1ccc(F)c(Br)c1 (stereo not drawn) [Compound 181]	> 2.1 µM	> 2.1 µM	D (D represents a maximal response of < 40%)	E (E represents a maximal response of 40-60%)
O=S(=O)(Cc1ccccc1)N1C2CCC(C2)C1c1ccc(F)c(Br)c1 (stereo not drawn) [Compound 182]	> 2.1 µM	> 2.1 µM	D (D represents a maximal response of < 40%)	E (E represents a maximal response of 40-60%)
